Measured values taken from US20070043102A1, “Oral suspension of tegaserod” (priority 2003, published 2007).

Assay: Stability study of the oral suspensions (HPLC assay and degradation products)
Assay type: physicochemical
Protocol: The stability study is performed for maximum 3 days at the storage conditions of room temperature (about 20-25° C.) and/or 5° C. ( fridge). The start point (TO) is performed about 1 minute after preparation. Furthermore, a “24 hours” and “3 days” time point at room temperature and 5° C. is performed.
Analytical methods: For each time-point tested, the degradation products of Tegaserod by HPLC are evaluated. Analytical methods are based on Test Methods described below.
Procedure for assay determination: For each time-point, one tablet is crushed according to the above procedure. The crushed tablet is transferred quantitatively into a 100 ml amber glass volumetric flask. 50 ml of the beverage is carefully added and the suspension is shaken vigorously by hand a few time and allowed to stand for the storage time tested. The suspension is re-homogenized, by shaking by hand. For extraction, the flask is filled to the mark with methanol (about 50 ml) then shaken for 30 minutes under magnetic stirring, sonicated for 10 minutes and shaken for 30 minutes under magnetic stirring. An aliquot of the methanol solution is centrifuged. The clear supernatant of the above solution is used as the test solution and is analyzed by HPLC (Isocratic HPLC on reversed phase RP-8 with UV detection). The same procedure is carried out once for each beverage but without tablet powder and the resulting chromatograms are compared for new appearance of any peak.
Procedure for determination of degradation products: In order to enable to reach a sufficiently low limit to quantify the degradation products, the number of tablets to be crushed is increased. For each time-point, 6 tablets for 2 mg dosage strength (or 5 tablets for 6 mg dosage strength) are crushed according to the above procedure. The crushed tablet is transferred quantitatively into a 20 ml for 2 mg dosage strength (or 50 ml amber glass volumetric flask for 6 mg dosage strength). 10 ml for 2 mg dosage strength (or 25 ml for 6 mg dosage strength) of the beverage are added carefully. The suspension is shaken vigorously by hand a few time and is allowed to stand for the storage time tested. The suspension is re-homogenized by shaking by hand. For extraction, the flask is filled to the mark with acetonitrile and is shaken for 30 minutes under magnetic stirring, sonicated for 10 minutes and shaken for 30 minutes under magnetic stirring. An aliquot of the homogenized solution is centrifuged.
The clear supernatant of the above solution is used as the test solution in order to quantify using a gradient HPLC on reversed phase RP-8 with UV detection. The same procedure is carried out once for each beverage but without crushed tablet and the resulting chromatograms are compared and analyzed according to the scheme below.
Acceptance criteria: Tegaserod is assumed stable in the tested media if the following acceptance criteria are met for the time-points studied.

time stable (crushed tablet in apple juice, fridge (5° C.), 2 mg dosage strength): at least 24 hours | time stable (crushed tablet in apple juice, fridge (5° C.), 6 mg dosage strength): up to 3 days | time stable (crushed tablet in apple juice, room temperature): at least 1 hour | time stable (crushed tablet in orange juice, fridge (5° C.), 2 mg dosage strength): at least 24 hours | time stable (crushed tablet in orange juice, fridge (5° C.), 6 mg dosage strength): up to 3 days | time stable (crushed tablet in orange juice, room temperature): at least 1 hour | time stable (crushed tablet in water, fridge (5° C.), 2 mg dosage strength): at least 24 hours | time stable (crushed tablet in water, fridge (5° C.), 6 mg dosage strength): up to 3 days | time stable (crushed tablet in water, room temperature): at least 1 hour
Structure (SMILES): CCCCCNC(=N)NN=Cc1c[nH]c2ccc(OC)cc12 [Tegaserod, 3-(5-methoxy-1H-indol-3-yl-methylene)-N-pentylcarbazimidamide]
